Experimental data: article PMC7211198, “Phase 1b study of a small molecule antagonist of human chemokine (C-C motif) receptor 2 (PF-04136309) in combination with nab-paclitaxel/gemcitabine in first-line treatment of metastatic pancreatic ductal adenocarcinoma” (Investigational New Drugs, 2019)
“And” between values parts separate entries of the source, which are not always exact repeats. Equal entries are not always repeated.

Assays:
[1] = tested on: metastatic pancreatic ductal adenocarcinoma; assay: Antitumor response per RECIST version 1.1, mITT population; assay type: in vivo, human; conditions: for Best overall response: Complete response / Best overall response: Early death / Best overall response: Indeterminate / Best overall response: Objective progression / Best overall response: Partial response / Best overall response: Stable/no response / Best overall response: Unconfirmed complete response / Best overall response: Unconfirmed partial response / Objective response rate (95% exact CI): mITT; for ORR: 95% exact CI
Protocol: The modified intent-to-treat (mITT) population was defined as all patients who had received at least one dose of study medication and had measurable disease at baseline assessment (within 28 days prior to study entry). The mITT population was assessed for antitumor response.
Objective response rate (ORR) was defined as the proportion of patients with confirmed complete response (CR) or confirmed PR according to Response Evaluation Criteria In Solid Tumors, version 1.1, relative to all enrolled patients who had baseline measurable disease. Confirmed responses were those that persisted on repeat imaging ≥4 weeks after initial documentation of response. Indeterminate responses were those with no documented progression and absence of proper assessment of target lesions.
Patients without on-study radiographic tumor re-evaluation and those who died, progressed, or dropped out for any reason prior to reaching a CR or PR were counted as nonresponders in the assessment of ORR. The ORR, CR, and PR point estimates for each treatment arm were provided along with the corresponding two-sided 95% confidence intervals (CIs) using an exact method.
Imaging for tumor assessments included computed tomography (CT) or MRI scans of the chest, abdomen, and pelvis; brain CT or MRI scan for patients with known or suspected brain metastases; and bone scan and/or bone X-rays for patients with known or suspected bone metastases.

[2] = Multiple-dose plasma pharmacokinetics, cycle 1 day 15; assay type: in vivo, human
Protocol: The hypothetical mechanisms of action of PF-04136309 were explored by analysis of biopsies, bone marrow aspirates, and peripheral blood (pre- and post-treatment during the study). Serial blood samples were collected from patients to determine the multiple-dose PK of PF-04136309 given in combination with nab-paclitaxel/gemcitabine.
Blood samples sufficient to provide ≥1 mL of plasma were collected for measurement of PF-04136309 concentrations. Plasma PF-04136309 concentrations were quantified with a validated liquid chromatography–mass spectrometry method. PF-04136309 concentration–time data from cycle 1 day 15 were analyzed using noncompartmental methods to estimate PK parameters.

[3] = tested on: T cells and CCR2+ TAM in tumor biopsy; assay: Immune cells in tumor biopsy samples by flow cytometry; assay type: in vivo, human
Protocol: The levels of CD14 + CCR2+ IM or other immune-cell phenotypes in the samples from the core needle biopsy, fine-needle aspirate from primary tumor tissue, bone marrow, and peripheral blood were assessed by flow cytometry. CCL2 levels were determined using whole blood plasma by immunoassay using a luminex-based method. The ex vivo inhibition of CCL2-induced pERK by PF-04136309 was measured in whole blood using flow cytometry. Percentages of CD4+, CD8+, and CD4 + FoxP3+ T cells within CD45+ populations were evaluated by flow cytometry in paired fresh biopsy samples from three patients. Two patients provided both baseline and on-study biopsies, and one patient provided a baseline biopsy only.

CCR2 = conditions: human monocytes and human whole blood; background statement, no reference given; cited from earlier work
[4] = 500-mg BID (n = 13), steady state
[5] = 500-mg BID group (n = 13), steady state
[6] = 750-mg BID group (n = 2), individual values

Compound: O=C(NCC(=O)N1CC[C@H](N[C@H]2CC[C@@](O)(c3ccc(-c4ncccn4)cn3)CC2)C1)c1cccc(C(F)(F)F)c1 [PF-04136309]
- Best overall response: Complete response ([1]; 500 mg BID + nab-P/Gem, N = 17): 0 n (%)
- Best overall response: Early death ([1]; 500 mg BID + nab-P/Gem, N = 17): 1 (5.9) n (%)
- Best overall response: Indeterminate ([1]; 500 mg BID + nab-P/Gem, N = 17): 5 (29.4) n (%)
- Best overall response: Objective progression ([1]; 500 mg BID + nab-P/Gem, N = 17): 3 (17.6) n (%)
- Best overall response: Partial response ([1]; 500 mg BID + nab-P/Gem, N = 17): 5 (29.4) n (%)
- Best overall response: Stable/no response ([1]; 500 mg BID + nab-P/Gem, N = 17): 2 (11.8) n (%)
- Best overall response: Unconfirmed complete response ([1]; 500 mg BID + nab-P/Gem, N = 17): 0 n (%)
- Best overall response: Unconfirmed partial response ([1]; 500 mg BID + nab-P/Gem, N = 17): 1 (5.9) n (%)
- Objective response rate (95% exact CI) ([1]; 500 mg BID + nab-P/Gem, N = 17): 5 (29.4) (10.3–56.0) n (%)
- ORR ([1]; 500 mg BID group (n = 17), 10.3–56.0%): 29.4%
- Best overall response: Complete response ([1]; 750 mg BID + nab-P/Gem, N = 4): 0 n (%)
- Best overall response: Early death ([1]; 750 mg BID + nab-P/Gem, N = 4): 0 n (%)
- Best overall response: Indeterminate ([1]; 750 mg BID + nab-P/Gem, N = 4): 2 (50.0) n (%)
- Best overall response: Objective progression ([1]; 750 mg BID + nab-P/Gem, N = 4): 0 n (%)
- Best overall response: Partial response ([1]; 750 mg BID + nab-P/Gem, N = 4): 0 n (%)
- Best overall response: Stable/no response ([1]; 750 mg BID + nab-P/Gem, N = 4): 1 (25.0) n (%)
- Best overall response: Unconfirmed complete response ([1]; 750 mg BID + nab-P/Gem, N = 4): 0 n (%)
- Best overall response: Unconfirmed partial response ([1]; 750 mg BID + nab-P/Gem, N = 4): 1 (25.0) n (%)
- Objective response rate (95% exact CI) ([1]; 750 mg BID + nab-P/Gem, N = 4): 0 (0.0–60.2) n (%)
- ORR ([1]; all 21 patients, 8.2–47.2%): 23.8%
- Coefficient of variation of AUCtau [2, 4]: 30%
- Coefficient of variation of Cmax [2, 4]: 44%
- Coefficient of variation of Cmin [2, 4]: 57%
- Mean AUCtau [2, 5]: 5873 ng·h/mL
- Mean Cmax [2, 5]: 1276 ng/mL
- Median Tmax ([2]; 500-mg BID, oral, with nab-paclitaxel/gemcitabine): 1.42 h
- AUCtau, observed values [2, 6]: 10,600 ng·hr/mL and 15,700 ng·hr/mL
- Cmax, observed values [2, 6]: 2950 ng/mL and 3390 ng/mL
- Change in PD-1 + CD4+ and PD-1 + CD8+ cells in the tumor biopsy sample ([3]; one patient, data not shown): increase
- CCR2+ TAM levels, change ([3]; two patients, 500-mg BID group, individual values, data not shown): ~4% to 3%
- Change in CD4+ and CD8+ cells within CD45+ populations in fresh biopsy tumor samples ([3]; two patients, 500-mg BID group, baseline vs week 6): increase
- Effect on CCR2-mediated signal transduction, chemotaxis, and CCL2 binding (CCR2): block
